Data as given in patent US20260256792A1, “TREATMENT OF CHRONIC SPONTANEOUS URTICARIA BY ADMINISTERING (R)-2-[3-[4-AMINO-3-(2-FLUORO-4-PHENOXY-PHENYL)PYRAZOLO[3,4-D]PYRIMIDIN-1-YL]PIPERIDINE-1-CARBONYL]-4-METHYL-4-[4-(OXETAN-3-YL)PIPERAZIN-1-YL]PENT-2-ENENITRILE” (priority 2023, published 2026).

Test system: angioedema in CSU patients
Test: Phase 2 CSU study: angioedema activity score over 7 days (AAS7)
Format: in vivo, human
Conditions: 400 mg BID; for AAS7 = 0, OR (95% CI) for rilzabrutinib vs. placebo / AAS7 = 0, RRD (%) for rilzabrutinib vs. placebo (95% CI) / AAS7 Post-baseline Mean (SD) / Participants with AAS7 = 0, Responder n (%) / AAS7 % Change difference for rilzabrutinib vs. placebo LS Mean (95% CI) / AAS7 % Change from baseline LS Mean (SE) / AAS7 Change difference for rilzabrutinib vs. placebo LS Mean (95% CI) / AAS7 Change from baseline LS Mean (SE) / AAS7 = 0, Non-responder n (%): angioedema at baseline; for Non-responder n (%), AAS7 = 0 / OR (95% CI) for rilzabrutinib vs. placebo, AAS7 = 0 / Responder n (%), AAS7 = 0 / RRD (%) for rilzabrutinib vs. placebo (95% CI), AAS7 = 0: outlier removed
Description: The study comprises a 12 week, randomized, double-blind, placebo-controlled, multi-center, dose-ranging efficacy and safety phase, followed by a 40 week open label extension (OLE) phase (see FIG. 1). The study consists of three phases and an optional OLE phase. […] The weekly angioedema activity score (AAS7) was proposed as a tertiary endpoint. […] Patients were to complete the AAS using the e-diary. The e-diary was to be used once daily on the same time of each day recording of participant's answers to the angioedema activity score over 7 days (AAS7) questionnaire.

CC(C)(C=C(C#N)C(=O)N1CCC[C@@H](n2nc(-c3ccc(Oc4ccccc4)cc3F)c3c(N)ncnc32)C1)N1CCN(C2COC2)CC1 [rilzabrutinib, (R)-2-[3-[4-amino-3-(2-fluoro-4-phenoxy-phenyl)pyrazolo[3,4-d]pyrimidin-1-yl]piperidine-1-carbonyl]-4-methyl-4-[4-(oxetan-3-yl)piperazin-1-yl]pent-2-enenitrile]
AAS7 = 0, OR (95% CI) for rilzabrutinib vs. placebo (Week 4, omalizumab-naïve): 2.118
AAS7 = 0, RRD (%) for rilzabrutinib vs. placebo (95% CI) (Week 4, omalizumab-naïve): 16.8 %
AAS7 Post-baseline Mean (SD) (Week 4, omalizumab-naïve): 14.79 (17.89)
Participants with AAS7 = 0, Responder n (%) (Week 4, omalizumab-naïve): 11 (42.3) n (%)
AAS7 % Change difference for rilzabrutinib vs. placebo LS Mean (95% CI) (Week 5, ITT): −14.36 (−40.13, 11.41) %
AAS7 % Change from baseline LS Mean (SE) (Week 5, ITT): −68.19 (10.08) %
AAS7 Change difference for rilzabrutinib vs. placebo LS Mean (95% CI) (Week 5, ITT): −6.53 (−17.51, 4.44)
AAS7 Change from baseline LS Mean (SE) (Week 5, ITT): −36.13 (4.29)
AAS7 Post-baseline Mean (SD) (Week 5, ITT): 12.95 (20.09)
Non-responder n (%), AAS7 = 0 (Week 5, omalizumab-naïve): 14 (40.0) n (%)
OR (95% CI) for rilzabrutinib vs. placebo, AAS7 = 0 (Week 5, omalizumab-naïve): 1.574
Responder n (%), AAS7 = 0 (Week 5, omalizumab-naïve): 21 (60.0) n (%)
AAS7 % Change difference for rilzabrutinib vs. placebo LS Mean (95% CI) (Week 5, omalizumab-naïve): −10.97 (−38.45, 16.50) %
AAS7 = 0, Non-responder n (%) (Week 5, omalizumab-naïve): 13 (50.0) n (%)
AAS7 = 0, OR (95% CI) for rilzabrutinib vs. placebo (Week 5, omalizumab-naïve): 2.390
AAS7 = 0, RRD (%) for rilzabrutinib vs. placebo (95% CI) (Week 5, omalizumab-naïve): 22.3 %
AAS7 Post-baseline Mean (SD) (Week 5, omalizumab-naïve): 13.98 (20.55)
Participants with AAS7 = 0, Responder n (%) (Week 5, omalizumab-naïve): 13 (50.0) n (%)
AAS7 % Change difference for rilzabrutinib vs. placebo LS Mean (95% CI) (Week 6, ITT): −23.55 (−50.40, 3.31) %
AAS7 Change difference for rilzabrutinib vs. placebo LS Mean (95% CI) (Week 6, ITT): −10.15 (−21.84, 1.54)
AAS7 Change from baseline LS Mean (SE) (Week 6, ITT): −36.76 (4.50)
AAS7 Post-baseline Mean (SD) (Week 6, ITT): 12.28 (18.70)
Non-responder n (%), AAS7 = 0 (Week 6, omalizumab-naïve): 17 (48.6) n (%)
OR (95% CI) for rilzabrutinib vs. placebo, AAS7 = 0 (Week 6, omalizumab-naïve): 1.118
RRD (%) for rilzabrutinib vs. placebo (95% CI), AAS7 = 0 (Week 6, omalizumab-naïve): 2.9 %
Responder n (%), AAS7 = 0 (Week 6, omalizumab-naïve): 18 (51.4) n (%)
AAS7 % Change difference for rilzabrutinib vs. placebo LS Mean (95% CI) (Week 6, omalizumab-naïve): −20.62 (−49.95, 8.72) %
AAS7 = 0, Non-responder n (%) (Week 6, omalizumab-naïve): 15 (57.7) n (%)
AAS7 = 0, OR (95% CI) for rilzabrutinib vs. placebo (Week 6, omalizumab-naïve): 1.828
AAS7 = 0, RRD (%) for rilzabrutinib vs. placebo (95% CI) (Week 6, omalizumab-naïve): 13.6 %
AAS7 Post-baseline Mean (SD) (Week 6, omalizumab-naïve): 13.26 (19.12)
Participants with AAS7 = 0, Responder n (%) (Week 6, omalizumab-naïve): 11 (42.3) n (%)
AAS7 % Change difference for rilzabrutinib vs. placebo LS Mean (95% CI) (Week 7, ITT): −25.42 (−54.97, 4.13) %
AAS7 % Change from baseline LS Mean (SE) (Week 7, ITT): −71.37 (11.45) %
AAS7 Change from baseline LS Mean (SE) (Week 7, ITT): −37.72 (4.37)
AAS7 Post-baseline Mean (SD) (Week 7, ITT): 13.39 (19.19)
Non-responder n (%), AAS7 = 0 (Week 7, omalizumab-naïve): 18 (51.4) n (%)
OR (95% CI) for rilzabrutinib vs. placebo, AAS7 = 0 (Week 7, omalizumab-naïve): 1.022
RRD (%) for rilzabrutinib vs. placebo (95% CI), AAS7 = 0 (Week 7, omalizumab-naïve): 0.6 %
Responder n (%), AAS7 = 0 (Week 7, omalizumab-naïve): 17 (48.6) n (%)
AAS7 % Change difference for rilzabrutinib vs. placebo LS Mean (95% CI) (Week 7, omalizumab-naïve): −23.13 (−55.14, 8.88) %
AAS7 % Change from baseline LS Mean (SE) (Week 7, omalizumab-naïve): −70.13 (12.07) %
AAS7 = 0, Non-responder n (%) (Week 7, omalizumab-naïve): 15 (57.7) n (%)
AAS7 = 0, OR (95% CI) for rilzabrutinib vs. placebo (Week 7, omalizumab-naïve): 1.515
AAS7 Post-baseline Mean (SD) (Week 7, omalizumab-naïve): 14.38 (19.63)
Participants with AAS7 = 0, Responder n (%) (Week 7, omalizumab-naïve): 11 (42.3) n (%)
AAS7 % Change difference for rilzabrutinib vs. placebo LS Mean (95% CI) (Week 8, ITT): −29.34 (−59.45, 0.76) %
AAS7 % Change from baseline LS Mean (SE) (Week 8, ITT): −81.40 (11.62) %
AAS7 Change difference for rilzabrutinib vs. placebo LS Mean (95% CI) (Week 8, ITT): −13.31 (−24.25, −2.37)
AAS7 Change from baseline LS Mean (SE) (Week 8, ITT): −41.63 (4.21)
AAS7 Post-baseline Mean (SD) (Week 8, ITT): 9.20 (16.24)
Non-responder n (%), AAS7 = 0 (Week 8, omalizumab-naïve): 14 (40.0) n (%)
OR (95% CI) for rilzabrutinib vs. placebo, AAS7 = 0 (Week 8, omalizumab-naïve): 1.991
RRD (%) for rilzabrutinib vs. placebo (95% CI), AAS7 = 0 (Week 8, omalizumab-naïve): 17.0 %
Responder n (%), AAS7 = 0 (Week 8, omalizumab-naïve): 21 (60.0) n (%)
AAS7 % Change difference for rilzabrutinib vs. placebo LS Mean (95% CI) (Week 8, omalizumab-naïve): −30.39 (−63.25, 2.47) %
AAS7 % Change from baseline LS Mean (SE) (Week 8, omalizumab-naïve): −80.38 (12.36) %
AAS7 = 0, Non-responder n (%) (Week 8, omalizumab-naïve): 13 (50.0) n (%)
AAS7 = 0, OR (95% CI) for rilzabrutinib vs. placebo (Week 8, omalizumab-naïve): 2.829
